Data reported in patent US7166622B2, “Substituted phenylsulfonamide inhibitors of beta amyloid production” (Wyeth, priority 2002, dated 2007).
Like-named read-outs stand apart in the source and are kept apart here.

How the values were obtained:
[1] = system: beta amyloid production; test: Repressor Release Assay (RRA); format: cell-based; details: for fold induction at 10 µg/mL / fold induction at 20 µg/mL: read-out: APPI Fold Increase; for APPI % of Example #98: relative to Example 98
Summary of the method: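 CHO-K1 cells transiently co-transfected with pRSVO-luc and an APP-lacI construct, replated, then treated in duplicate for 36-48 h at 37 °C, 5% CO2. Compounds diluted in 25 mM Hepes, with Hepes/1% DMSO as diluent control. Luciferase read-out in relative light units; toxicity scored 1 non-toxic, 0 toxic.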

[2] = system: CHO-K1 cells; test: Toxicity in RRA (loss of luciferase signal); details: toxicity = loss of signal (<0.75 fold increase)
Experimental: The beta amyloid inhibitory activity of the compounds of the present invention was determined using the Repressor Release Assay (RRA).
“Fold Increase” refers to the amount of luciferase activity (measured in relative light units) over diluent control. “SEM” refers to the standard error of the mean for fold increase.

[3] = Conc 10 μg/ml, luciferase activity over diluent control
[4] = Conc 20 μg/ml, luciferase activity over diluent control
[5] = Conc 20 μg/ml, luciferase activity (RLU) over diluent control
[6] = Conc 20 μg/ml, 1=non-toxic, 0=toxic

Compound | fold induction at 10 µg/mL [1, 3] | (%)APPI Toxicity ([2]; Conc 10 μg/ml) | fold induction at 20 µg/mL [1, 4] | (%)APPI Toxicity ([2]; Conc 20 μg/ml) | further results
CC[C@H](C)[C@H](NS(=O)(=O)c1cccc(Cl)c1)C(O)c1ccc(Cl)cc1 (stereo partly drawn) [Example 196, 3-chloro-N-{(1S,2S)-1-[(4-chlorophenyl)(hydroxy)methyl]-2-methylbutyl}benzenesulfonamide] | 1.78 | 1 (1=non-toxic) |  |  | 
CC(C)(C)[C@@H](CO)NS(=O)(=O)c1cc(Cl)c(Cl)cc1Cl [Example 31, 2,4,5-trichloro-N-[(1S)-1-(hydroxymethyl)-2,2-dimethylpropyl]benzenesulfonamide] |  |  | 2.8 | 1 (1=non-toxic) | 
CC[C@H](C)[C@H](NS(=O)(=O)c1ccc(Br)cc1)C(O)c1ccc(N(C)C)cc1 (stereo partly drawn) [Example 164, 4-bromo-N-{(1S,2S)-1-[[4-(dimethylamino)phenyl](hydroxy)methyl]-2-methylbutyl} benzenesulfonamide] |  | 1 (1=non-toxic) |  |  | APPI Fold Increase [1, 3]: 3.53 fold; APPI % of Example #98 ([1]; Conc 10 μg/ml): 149.31%
CC[C@H](C)[C@@H](CO)NS(=O)(=O)c1ccc(Cl)c2nnoc12 [Example 4, 4-chloro-N-[(1S,2S)-1-(hydroxymethyl)-2-methylbutyl]-1,2,3-benzoxadiazole-7-sulfonamide] |  |  | 1.5 | 1 (1=non-toxic) | 
COc1ccc([C@@H](C)[C@@H](CO)NS(=O)(=O)c2ccc(Cl)cc2)cc1 [Example 49, 4-Chloro-N-[(1S,2R)-1-(hydroxymethyl)-2-(4-methoxyphenyl)propyl]benzenesulfonamide] |  |  | 2.5 | 1 (1=non-toxic) | 
CC[C@H](C)[C@H](NS(=O)(=O)c1ccc(Cl)cc1)C(O)CCC1OCCCO1 (stereo partly drawn) [Example 179, 4-chloro-N-{(1S)-4-(1,3-dioxan-2-yl)-2-hydroxy-1-[(1S)-1-methylpropyl]butyl} benzenesulfonamide] |  | 1 (1=non-toxic) |  |  | APPI Fold Increase [1, 3]: 1.63 fold; APPI % of Example #98 ([1]; Conc 10 μg/ml): 79.4%
CC[C@H](C)[C@H](NS(=O)(=O)c1ccc(Cl)cc1)C(O)(c1ccc(OC)cc1)c1ccc(OC)cc1 [Example 231, 4-chloro-N-((1S,2 S)-1-{hydroxy [bis(4-methoxyphenyl)]methyl}-2-methylbutyl)benzenesulfonamide] | 2.49 | 1 (1=non-toxic) |  |  | 
CCCCCCC(O)[C@@H](NS(=O)(=O)c1ccc(Cl)cc1)[C@@H](C)CC (stereo partly drawn) [Example 167, 4-chloro-N-{(1S)-2-hydroxy-1-[(1S)-1-methylpropyl]octyl}benzenesulfonamide] | 9.66 | 1 (1=non-toxic) |  |  | 
O=S(=O)(NC1(CO)CCCCC1)c1ccc(Br)cc1 [Example 120, 4-Bromo-N-[1-(hydroxymethyl)-cyclohexyl]-benzenesulfonamide] |  |  | 5 | 1 (1=non-toxic) | 
CCCCC(O)(CCCC)[C@@H](NS(=O)(=O)c1ccc(F)cc1)[C@@H](C)CC [Example 238, N-{(1S)-2-butyl-2-hydroxy-1-[(1S)-1-methylpropyl]hexyl}-4-fluorobenzenesulfonamide] | 4.5 | 1 (1=non-toxic) |  |  | 
CC[C@H](C)[C@H](NS(=O)(=O)c1cccc(Cl)c1)C(O)C1CCCC1 (stereo partly drawn) [Example 186, 3-chloro-N-{(1S,2S)-1-[cyclopentyl(hydroxy)methyl]-2-methylbutyl}benzenesulfonamide] | 3.86 | 1 (1=non-toxic) |  |  | 
CC[C@H](C)[C@@H](CO)NS(=O)(=O)c1ccccc1F [Example 11, 2-fluoro-N-[(1S,2S)-1-(hydroxymethyl)-2-methylbutyl]benzenesulfonamide] |  |  | 2.3 | 1 (1=non-toxic) | 
CC(C)C[C@@H](CO)NS(=O)(=O)c1ccc(Br)cc1 [Example 18, 4-bromo-N-[(1S)-1-(hydroxymethyl)-3-methylbutyl]benzenesulfonamide] |  |  | 1.9 | 1 (1=non-toxic) | 
CC[C@H](C)[C@H](NS(=O)(=O)c1cccc(Cl)c1)C(O)(c1ccc(Cl)cc1)c1ccc(Cl)cc1 [Example 256, N-{(1S,2S)-1-[bis(4-chlorophenyl)(hydroxy)methyl]-2-methylbutyl}-3-chloro benzenesulfonamide] |  | 1 (1=non-toxic) |  |  | APPI Fold Increase [1, 3]: 1.5 fold; APPI % of Example #98 ([1]; Conc 10 μg/ml): 55.91%
O=S(=O)(N[C@H](CO)Cc1cc2ccccc2[nH]1)c1ccc(Br)cc1 [Example 19, 4-bromo-N-[(1S)-2-hydroxy-1-(1H-indol-2-ylmethyl)ethyl]benzenesulfonamide] |  |  | 1.6 | 1 (1=non-toxic) | 
CC[C@H](C)[C@@H](CO)N(C)S(=O)(=O)c1ccc(Cl)cc1 [Example 90, 4-Chloro-N-methyl-N-[(1S,2S)-1-(hydroxymethyl)-2-methylbutyl]benzenesulfonamide] |  |  | 1.6 | 1 (1=non-toxic) | 
CCCCC(CO)NS(=O)(=O)c1ccccc1F (stereo not drawn) [Example 110, 2-fluoro-N-[1-(hydroxymethyl)pentyl] benzenesulfonamide] |  |  |  | 1 (1=non-toxic) | APPI Fold Increase [1, 4]: 1.7 fold; APPI % of Example #98 ([1]; Conc 20 μg/ml): 46.5%
O=S(=O)(N[C@H](CO)CC1CCCCC1)c1ccccc1F [Example 115, N-[(1S)-2-cyclohexyl-1-(hydroxymethyl)ethyl]-2-fluorobenzenesulfonamide] |  |  | 1.8 | 1 (1=non-toxic) | 
CCCCCC[C@@H](C)[C@@H](CO)NS(=O)(=O)c1ccc(Br)cc1 [Example 72, 4-bromo-N-[(1S,2R)-1-(hydroxymethyl)-2-methyloctyl] benzenesulfonamide] |  |  |  |  | APPI Fold Increase [1, 5]: 3.2; APPI % of Example #98 ([1]; Conc 20 μg/ml): 76.4%; (%)APPI Toxicity [2, 6]: 1 (1=non-toxic)
CC[C@H](C)[C@@H](CO)NS(=O)(=O)c1ccc(Cl)c(Cl)c1 [Example 24, 3,4-dichloro-N-[(1S,2S)-1-(hydroxymethyl)-2-methylbutyl]benzenesulfonamide] |  |  | 1.6 | 1 (1=non-toxic) | 
CC(C)C[C@@H](c1ccco1)[C@@H](CO)NS(=O)(=O)c1ccc(Cl)cc1 [Example 67, 4-chloro -N-[(1S,2R)-2-(2-furyl)-1-(hydroxymethyl)-4-methylpentyl]benzenesulfonamide] |  |  |  |  | fold induction at 20 µg/mL [1, 5]: 3.9; (%)APPI Toxicity [2, 6]: 1 (1=non-toxic)
CC[C@H](C)[C@H](NS(=O)(=O)c1ccccc1F)C(O)(c1ccccc1)c1ccccc1 [Example 263, 2-fluoro-N-{(1S,2 S)-1-[hydroxy (diphenyl)methyl]-2-methylbutyl}benzenesulfonamide] | 1.57 | 1 (1=non-toxic) |  |  | 
CCCCCC(O)[C@@H](NS(=O)(=O)c1ccccc1F)[C@@H](C)CC (stereo partly drawn) [Example 204, 2-fluoro-N-{(1S)-2-hydroxy-1-[(1S)-1-methylpropyl]heptyl}benzenesulfonamide] | 3.73 | 1 (1=non-toxic) |  |  | 
CC[C@H](C)[C@@H](CO)NS(=O)(=O)c1cc(F)c(Br)cc1F [Example 20, 4-Bromo-2,5-difluoro-N-[(1S,2S)-1-(hydroxymethyl)-2methylbutyl]benzenesulfonamide] |  |  | 3.3 | 1 (1=non-toxic) | 
CC[C@H](C)[C@H](NS(=O)(=O)c1cccc(Cl)c1)C(O)(CC)CC [Example 255, 3-chloro-N-{(1S)-2-ethyl-2-hydroxy-1-[(1S)-1-methylpropyl]butyl}benzenesulfonamide] | 2.03 | 1 (1=non-toxic) |  |  | 
CCCCCCC(O)[C@@H](NS(=O)(=O)c1cccc(Cl)c1)[C@@H](C)CC (stereo partly drawn) [Example 187, 3-chloro-N-{(1S)-2-hydroxy-1-[(1S)-1-methylpropyl]octyl}benzenesulfonamide] | 9.02 | 1 (1=non-toxic) |  |  | 
C=CCCC(O)(CCC=C)[C@@H](NS(=O)(=O)c1ccccc1F)[C@@H](C)CC [Example 271, N-{(1S)-2-(3-butenyl)-2-hydroxy-1-[(1S)-1-methylpropyl]-5-hexenyl}-2-fluorobenzenesulfonamide] | 1.82 | 1 (1=non-toxic) |  |  | 
CC#CC(O)[C@@H](NS(=O)(=O)c1ccc(Cl)cc1)[C@@H](C)CC (stereo partly drawn) [Example 181, 4-chloro-N-{(1S)-2-hydroxy-1-[(1S)-1-methylpropyl]-3-pentynyl}benzenesulfonamide] | 1.76 | 1 (1=non-toxic) |  |  | 
CCCCCC[C@@H](CC)[C@@H](CO)NS(=O)(=O)c1ccc(Br)cc1 [Example 75, 4-bromo-N-[(1S,2R)-2-ethyl-1-(hydroxymethyl)octyl]benzenesulfonamide] |  |  |  |  | fold induction at 20 µg/mL [1, 5]: 4.8; (%)APPI Toxicity [2, 6]: 1 (1=non-toxic)
